{"source": "patent EP1353939B1", "about": "“TETRAPEPTIDE REGULATING PROSTATE FUNCTIONS AND ITS COMPOSITIONS AND USES” (Sankt-Peterburgskaya Obschestvennaya Organizatsia …, priority 2001, dated 2004)", "key": {"[1]": {"system": "urinary bladder explants", "conditions": "20 ng/ml, third day of cultivation", "experimental": "The experiments were carried out in 45 urinary bladder fragments of 10-11-days old chicken embryos. The nutrient medium for the explant cultivation included 35 % of Eagle's solution, 25 % of foetal calf serum, 35 % of Hanks' solution, 5 % of chicken embryonic extract and was added glucose (0.6 %), insulin (0.5 unit/ml), penicillin (100 unit/ml) and glutamine (2 mM). The urinary bladder fragments were placed in this medium and cultivated in Petri's dishes in a thermostat at 36.7°C for 48 hours. […] Square index (SI) was taken for a biological activity criterion and calculated as a correlation of the total explant square (including the growth zone) to the initial square of a urinary bladder fragment. The SI values were expressed per cent, the control SI value - taken for 100 %."}, "[2]": {"system": "chronic bacterial prostatitis", "procedure": "The investigation was performed on 41 white mongrel male rats weighing on average 230 g. Bacterial prostatitis was induced in the rats by transurethral introduction of enterotoxigenic E.coli suspension K-2935 (01: K1: H-). A glycerine-lubricated catheter was inserted into the animals' urethra under a light ether narcosis after treating the external urethra opening with 70 % alcohol. 0.2 ml of bacterial suspension (10^9 colony-forming units per ml) was instilled via catheter with a syringe. Control animals were injected with 0.2 ml of 0.9 % natural saline solution through the catheter. […] The injections were performed daily for 10 days. The control groups included intact animals, animals with untreated chronic prostatitis and those treated with injections of 0.9 % natural saline solution applied by the same plan.\nAll the rats were euthanasised by decapitation on the 70th day of the experiment. The animals were subjected to complete autopsy. Their testes and epididymes, prostate, seminal vesicles, bulbourethral glands, urinary bladder, kidneys with ureters and other intrinsic organs were examined. For histology the ventral segment of the prostate was fixed in 10 % neutral formalin and - after a standard processing with a series of solvents - embedded in paraffin. 5-7-µm thin tissue sections were stained with haematoxylin-eosin.\nThe degree of prostatitis manifestation throughout the groups was assessed according to the below 5-point scale: • 1 point - traces of prostatitis (small foci of fibrosis, interstitial lymphocytic and histiocytic infiltration); • 2 points - foci of chronic prostatitis with inflammatory infiltration (basically, interstitial one) occupying less than ¼ of the gland section; • 3 points - prostatitis foci with large inflammatory infiltrates surrounding the ducts, acini and blood vessels, with leukocytic conglomerations in the glandular lumens, embracing ¼ - ½ of the gland section; • 4 points - expressed prostatitis covering ½ - ¾ of the gland section; • 5 points - strongly expressed prostatitis affecting over ¾ of the gland section.\nThe prostate sites were also used for electron microscopic examination and tests on the content of zinc, which makes a part of compositions with anti-microbial activity."}, "[3]": {"system": "processes of free radical oxidation", "conditions": "0.1 µg per injection s.c. for 10 days", "procedure": "The animals were subcutaneously administered with 0.1 µg of the tetrapeptide per injection for 10 days. The controls were similarly injected with 0.9 % natural saline solution. The rats were euthanasised on the next day after the last introduction of the tetrapeptide.\nAfterwards, samples of the brain and liver tissues and blood serum were prepared and peroxide lipid oxidation (PLO) intensity in them was studied by the content of diene conjugates and Schiff's bases. The activity of glutathione peroxidase and superoxide dismutase was defined as well by the method of suppressing nitroblue tetrasolium oxidation with biological material."}}, "note": "Read-outs that look alike come from different tables or passages of the source. Marks after values point to notes of the source that are not given here."}
{"substance": "lysyl-glutamyl-aspartyl-proline [Lys-Glu-Asp-Pro tetrapeptide]", "values": [{"measurement": "increase in the explant SI as compared to the control value", "setting": "[1]", "value": 23, "unit": "%"}, {"measurement": "positive dynamics of inflammatory processes in the prostate", "setting": "[2]; 0.1 µg per injection s.c. daily for 10 days", "value": "7 cases out of 11"}, {"measurement": "Degree of prostatitis in points Per rat in the group", "setting": "[2]; 0.1 µg per injection s.c. daily for 10 days, from day 45 after infection, 5-point scale", "value": "1.81 ± 0.09", "unit": "points"}, {"measurement": "Degree of prostatitis in points Per prostatitis-affected rat", "setting": "[2]; 0.1 µg per injection s.c. daily for 10 days, 5-point scale", "value": "2.86* points"}, {"measurement": "mean concentration of zinc in the prostate tissue", "setting": "[2]; after application of the tetrapeptide (Figure 2)", "value": "decreased"}, {"measurement": "Number of rats in the group Prostatitis -affected", "setting": "[2]; of 11 rats in total, 0.1 µg per injection s.c. daily for 10 days", "value": 7}, {"measurement": "Diene conjugates", "setting": "[3]; Blood serum", "value": "5.28 ± 0.33", "unit": "nmol/mL"}, {"measurement": "Glutathione peroxidase", "setting": "[3]; Blood serum", "value": "2.85 ± 0.06 mmol of GlSH/min/mg of protein"}, {"measurement": "Schiff's bases", "setting": "[3]; Blood serum", "value": "17.40 ± 1.54", "unit": "conv. unit/ml"}, {"measurement": "Superoxide dismutase", "setting": "[3]; Blood serum", "value": "0.826 ± 0.060 conv. unit/mg of protein"}, {"measurement": "Diene conjugates", "setting": "[3]; Brain", "value": "46.14 ± 2.91", "unit": "mnol/ml"}, {"measurement": "Glutathione peroxidase", "setting": "[3]; Brain", "value": "50.7±0.2 mmole of GlSH/min/mg of protein"}, {"measurement": "Schiff's bases", "setting": "[3]; Brain", "value": "237.3 ± 17.8", "unit": "conv. unit/ml"}, {"measurement": "Superoxide dismutase", "setting": "[3]; Brain", "value": "26.7 ± 3.0 conv. unit/mg of protein"}, {"measurement": "Diene conjugates", "setting": "[3]; Liver", "value": "44.76 ± 2.48", "unit": "nmol/mL"}, {"measurement": "Glutathione peroxidase", "setting": "[3]; Liver", "value": "798.0±29.1 mmol of GlSH/min/mg of protein"}, {"measurement": "Schiff's bases", "setting": "[3]; Liver", "value": "556.5 ±37.6", "unit": "conv. unit/ml"}, {"measurement": "Superoxide dismutase", "setting": "[3]; Liver", "value": "54.1 ± 7.9 conv. unit/mg of protein"}]}
